Laboratory results reported in patent publication EP3623369A1, “NOVEL MORPHOLINYL AMINE COMPOUNDS FOR THE TREATMENT OF AUTOIMMUNE DISEASE” (F. Hoffmann-La Roche AG, priority 2018, dated 2020).

Target: T1, hTLR9 (Homo sapiens, UniProt Q9NR96)
T1 sequence (Q9NR96 26-1032): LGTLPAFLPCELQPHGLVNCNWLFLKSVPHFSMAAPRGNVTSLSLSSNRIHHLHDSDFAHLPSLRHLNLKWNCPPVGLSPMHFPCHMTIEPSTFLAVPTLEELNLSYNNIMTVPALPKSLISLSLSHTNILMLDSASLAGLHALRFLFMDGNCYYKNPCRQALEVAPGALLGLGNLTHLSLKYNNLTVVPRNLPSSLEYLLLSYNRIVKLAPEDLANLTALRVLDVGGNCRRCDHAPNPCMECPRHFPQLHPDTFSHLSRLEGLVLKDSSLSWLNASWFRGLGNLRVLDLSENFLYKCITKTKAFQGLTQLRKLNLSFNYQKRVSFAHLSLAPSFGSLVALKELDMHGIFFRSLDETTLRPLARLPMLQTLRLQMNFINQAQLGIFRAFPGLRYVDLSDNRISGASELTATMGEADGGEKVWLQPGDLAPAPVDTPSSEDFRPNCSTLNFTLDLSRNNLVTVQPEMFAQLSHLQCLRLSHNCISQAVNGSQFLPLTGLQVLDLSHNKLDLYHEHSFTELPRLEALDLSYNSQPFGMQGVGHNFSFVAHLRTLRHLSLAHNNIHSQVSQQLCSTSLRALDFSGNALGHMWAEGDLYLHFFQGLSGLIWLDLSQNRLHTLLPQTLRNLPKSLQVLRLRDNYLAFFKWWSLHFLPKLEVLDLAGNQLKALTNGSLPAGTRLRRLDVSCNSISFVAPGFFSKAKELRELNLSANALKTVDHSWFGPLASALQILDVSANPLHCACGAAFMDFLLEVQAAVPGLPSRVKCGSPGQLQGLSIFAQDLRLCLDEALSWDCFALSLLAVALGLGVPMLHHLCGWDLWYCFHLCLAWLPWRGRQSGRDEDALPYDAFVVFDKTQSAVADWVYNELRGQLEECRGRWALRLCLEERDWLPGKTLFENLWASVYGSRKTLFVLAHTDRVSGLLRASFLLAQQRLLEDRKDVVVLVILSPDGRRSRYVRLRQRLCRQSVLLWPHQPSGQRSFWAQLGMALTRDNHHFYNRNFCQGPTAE
Assay: HEK293-Blue-hTLR-9 cells assay (SEAP reporter, ODN2006 stimulation)
Format: cell-based
Settings: HEK293-Blue-hTLR9 cells, ODN2006, 20 hrs; 0.032 is the lowest tested concentration; read-out: HEK/hTLR9 IC50
Experimental: The following tests were carried out in order to determine the activity of the compounds of formula (I) or (Ia) in HEK293-Blue-hTLR-7/8/9 cells assay.
HEK293-Blue-hTLR-9 cells assay:
A stable HEK293-Blue-hTLR-9 cell line was purchased from InvivoGen (Cat.#: hkb-htlr9, San Diego, California, USA). These cells were originally designed for studying the stimulation of human TLR9 by monitoring the activation of NF-κB. A SEAP (secreted embryonic alkaline phosphatase) reporter gene was placed under the control of the IFN-β minimal promoter fused to five NF-κB and AP-1-binding sites. The SEAP was induced by activating NF-κB and AP-1 via stimulating HEK-Blue hTLR9 cells with TLR9 ligands. Therefore the reporter expression was declined by TLR9 antagonist under the stimulation of a ligand, such as ODN2006 (Cat.#: tlrl-2006-1, Invivogen, San Diego, California, USA), for incubation of 20 hrs. The cell culture supernatant SEAP reporter activity was determined using QUANTI-Blue™ kit (Cat.#: rep-qb1, Invivogen, San Diego, California, USA) at a wavelength of 640 nm, a detection medium that turns purple or blue in the presence of alkaline phosphatase.
HEK293-Blue-hTLR9 cells were incubated at a density of 250,000∼450,000 cells/mL in a volume of 170 µL in a 96-well plate in Dulbecco's Modified Eagle's medium (DMEM) containing 4.5 g/L glucose, 50 U/mL penicillin, […], […], 2 mM L-glutamine, 10% (v/v) heat-inactivated fetal bovine serum with addition of 20 µL test compound in a serial dilution in the presence of final DMSO at 1% and 10 µL of 20uM ODN2006 in above DMEM, perform incubation under 37 °C in a CO2 incubator for 20 hrs. Then 20 µL of the supernatant from each well was incubated with 180 µL Quanti-blue substrate solution at 37 °C for 2 hrs and the absorbance was read at 620∼655 nm using a spectrophotometer. The signalling pathway that TLR9 activation leads to downstream NF-κB activation has been widely accepted, and therefore similar reporter assay was modified for evaluating TLR9 antagonist.

Compound | IC50 [µM]
3-fluoro-4-[(2R,6S)-2-methyl-6-[(5-piperazin-1-ylisoindolin-2-yl)methyl]morpholin-4-yl]pyrazolo[1,5-a]pyridine-7-carbonitrile [Example 7] | 0.091
5-[(2S,6R)-2-[[5-[3-(hydroxymethyl)piperazin-1-yl]isoindolin-2-yl]methyl]-6-methyl-morpholin-4-yl]quinoline-8-carbonitrile [Example 85] | 0.051
C[C@@H]1CN(c2ccc3c(c2)CN(C[C@H]2CN(c4ccc(C#N)c5ncccc45)C[C@@H](C)O2)C3)C[C@@H](C)N1 (mixture of isomers) [Example 57, Trans-5-[(2R,6S)-2-methyl-6-[[5-[3,5-dimethylpiperazin-1-yl]isoindolin-2-yl]methyl]morpholin-4-yl]quinoline-8-carbonitrile] | 0.098
C[C@@H]1CN(c2ccc(C#N)c3ncccc23)C[C@H](CNCc2ccccc2)O1 [ER-886509, reference compound] | 2.08
C[C@@H]1CN(c2ccc(C#N)n3nccc23)C[C@H](CN2Cc3ccc(N4CCNCC4)cc3C2)O1 [Example 4, 4-[(2R,6S)-2-methyl-6-[(5-piperazin-1-ylisoindolin-2-yl)methyl]morpholin-4-yl]pyrazolo[1,5-a]pyridine-7-carbonitrile] | 0.055
C[C@@H]1CN(c2ccc(C#N)n3nccc23)C[C@H](CN2Cc3ccc(C4CCNCC4)cc3C2)O1 [Example 8, 4-[(2R,6S)-2-methyl-6-[[5-(4-piperidyl)isoindolin-2-yl]methyl]morpholin-4-yl]pyrazolo[1,5-a]pyridine-7-carbonitrile] | 0.062
C[C@@H]1CN(c2ccc(C#N)n3nccc23)C[C@H](CN2Cc3ccc(C4CCNC4)cc3C2)O1 (stereo partly drawn) [Example 9, 4-[(2R,6S)-2-methyl-6-[(5-pyrrolidin-3-ylisoindolin-2-yl)methyl]morpholin-4-yl]pyrazolo[1,5-a]pyridine-7-carbonitrile] | 0.064
C[C@@H]1CN(c2ccc(C#N)n3nccc23)C[C@H](CN2CCc3cc(N4CCNCC4)ccc3C2)O1 [Example 10, 4-[(2R,6S)-2-methyl-6-[(6-piperazin-1-yl-3,4-dihydro-1H-isoquinolin-2-yl)methyl]morpholin-4-yl]pyrazolo[1,5-a]pyridine-7-carbonitrile] | 0.067
C[C@@H]1CN(c2ccc(C#N)n3nccc23)C[C@H](CN2CCc3ccc(N4CCNCC4)cc3C2)O1 [Example 11, 4-[(2R,6S)-2-methyl-6-[(7-piperazin-1-yl-3,4-dihydro-1H-isoquinolin-2-yl)methyl]morpholin-4-yl]pyrazolo[1,5-a]pyridine-7-carbonitrile] | 0.06
C[C@@H]1CN(c2ccc(C#N)c3nccnc23)C[C@H](CN2Cc3ccc(N4CCNCC4)cc3C2)O1 [Example 12, 8-[(2R,6S)-2-methyl-6-[(5-piperazin-1-ylisoindolin-2-yl)methyl]morpholin-4-yl]quinoxaline-5-carbonitrile] | 0.052
C[C@@H]1CN(c2ccc(C#N)c3nccnc23)C[C@H](CN2CCc3cc(N4CCNCC4)ccc3C2)O1 [Example 13, 8-[(2R,6S)-2-methyl-6-[(6-piperazin-1-yl-3,4-dihydro-1H-isoquinolin-2-yl)methyl]morpholin-4-yl]quinoxaline-5-carbonitrile] | 0.054
C[C@@H]1CN(c2ccc(C#N)n3ncc(F)c23)C[C@H](CN2CCc3cc(N4CCNCC4)ccc3C2)O1 [Example 14, 3-fluoro-4-[(2R,6S)-2-methyl-6-[(6-piperazin-1-yl-3,4-dihydro-1H-isoquinolin-2-yl)methyl]morpholin-4-yl]pyrazolo[1,5-a]pyridine-7-carbonitrile] | 0.117
C[C@@H]1CN(c2ccc(C#N)n3nccc23)C[C@H](CN2CCc3cc(N4CCN(C)CC4)ccc3C2)O1 [Example 15, 4-[(2R,6S)-2-methyl-6-[[6-(4-methylpiperazin-1-yl)-3,4-dihydro-1H-isoquinolin-2-yl]methyl]morpholin-4-yl]pyrazolo[1,5-a]pyridine-7-carbonitrile] | 0.046
C[C@@H]1CN(c2ccc(C#N)n3nccc23)C[C@H](CNCc2ccc(N3CCNCC3)cc2)O1 [Example 16, 4-[(2R,6S)-2-methyl-6-[[(4-piperazin-1-ylphenyl)methylamino]methyl]morpholin-4-yl]pyrazolo[1,5-a]pyridine-7-carbonitrile] | 0.082
C[C@@H]1CN(c2ccc(C#N)n3nccc23)C[C@H](CN2Cc3ccc(N4CCN(C)CC4)cc3C2)O1 [Example 17, 4-[(2R,6S)-2-methyl-6-[[5-(4-methylpiperazin-1-yl)isoindolin-2-yl]methyl]morpholin-4-yl]pyrazolo[1,5-a]pyridine-7-carbonitrile] | 0.048
C[C@@H]1CN(c2ccc(C#N)n3nccc23)C[C@H](CN2Cc3cc(N4CCNCC4)cnc3C2)O1 [Example 18, 4-[(2R,6S)-2-methyl-6-[(3-piperazin-1-yl-5,7-dihydropyrrolo[3,4-b]pyridin-6-yl)methyl]morpholin-4-yl]pyrazolo[1,5-a]pyridine-7-carbonitrile] | 0.048
C[C@@H]1CN(c2ccc(C#N)c3ncccc23)C[C@H](CN2CCc3cc(N4CCNCC4)ccc3C2)O1 [Example 19, 5-[(2R,6S)-2-methyl-6-[(6-piperazin-1-yl-3,4-dihydro-1H-isoquinolin-2-yl)methyl]morpholin-4-yl]quinoline-8-carbonitrile] | 0.064
C[C@@H]1CN(c2ccc(C#N)c3ncccc23)C[C@H](CN2Cc3cc(N4CCNCC4)cnc3C2)O1 [Example 20, 5-[(2R,6S)-2-methyl-6-[(3-piperazin-1-yl-5,7-dihydropyrrolo[3,4-b]pyridin-6-yl)methyl]morpholin-4-yl]quinoline-8-carbonitrile] | 0.048
C[C@@H]1CN(c2ccc(C#N)c3ncccc23)C[C@H](CN2Cc3ccc(N4CCNCC4)cc3C2)O1 [Example 21, 5-[(2R,6S)-2-methyl-6-[(5-piperazin-1-ylisoindolin-2-yl)methyl]morpholin-4-yl]quinoline-8-carbonitrile] | 0.055
C[C@@H]1CN(c2ccc(C#N)c3ncsc23)C[C@H](CN2Cc3ccc(N4CCNCC4)cc3C2)O1 [Example 23, 7-[(2R,6S)-2-methyl-6-[(5-piperazin-1-ylisoindolin-2-yl)methyl]morpholin-4-yl]-1,3-benzothiazole-4-carbonitrile] | 0.075
C[C@@H]1CN(c2ccc(C#N)c3ncsc23)C[C@H](CN2CCc3cc(N4CCNCC4)ccc3C2)O1 [Example 24, 7-[(2R,6S)-2-methyl-6-[(6-piperazin-1-yl-3,4-dihydro-1H-isoquinolin-2-yl)methyl]morpholin-4-yl]-1,3-benzothiazole-4-carbonitrile] | 0.081
C[C@@H]1CN(c2ccc(C#N)c3ncsc23)C[C@H](CN2Cc3cc(N4CCNCC4)cnc3C2)O1 [Example 25, 7-[(2R,6S)-2-methyl-6-[(3-piperazin-1-yl-5,7-dihydropyrrolo[3,4-b]pyridin-6-yl)methyl]morpholin-4-yl]-1,3-benzothiazole-4-carbonitrile] | 0.063
